Measured values reported in publication PMC9848269, “Investigation of novel alkyl/benzyl (4-sulphamoylphenyl)carbamimidothioates as carbonic anhydrase inhibitors” (Journal of Enzyme Inhibition and Medicinal Chemistry, 2023).
Where two headings read alike, the source gives them in different places.

Tests used:
hCA I [1] = target: T1, hCA I (Homo sapiens, UniProt P00915); experiment: stopped-flow CO2 hydration; assay type: biochemical
T1 construct: gene CA1; recombinant, obtained in-house; cytosolic
Source text: stopped-flow CO2 hydration on hCA I

hCA II [2] = target: T2, hCA II (Homo sapiens, UniProt P00918); experiment: biochemical; design: stopped-flow CO2 hydration assay, phenol red 557 nm, Hepes pH 7.5, recombinant alpha-CA, 6 h preincubation
T2 construct: gene CA2; recombinant, obtained in-house; cytosolic
Method: (§1) An applied photophysics stopped-flow instrument has been used for assaying the CA-catalysed CO2 hydration activity. Phenol red (at a concentration of 0.2 mM) was used as indicator, working at the absorbance maximum of 557 nm, with 20 mM Hepes (pH 7.5) as buffer for α-CAs or 20 mM TRIS (pH 8.4) as buffer for β-CAs, and 20 mM Na2SO4 (for maintaining constant the ionic strength), following the initial rates of the CA-catalysed CO2 hydration reaction for a period of 10 – 100 s. The CO2 concentrations ranged from 1.7 to 17 mM for the determination of the kinetic parameters and inhibition constants. For each inhibitor, at least six traces of the initial 5 – 10% of the reaction have been used for determining the initial velocity. The uncatalysed rates were determined in the same manner and subtracted from the total observed rates. Stock solutions of inhibitor (0.1 mM) were prepared in distilled – deionised water, and dilutions up to 0.01 nM were done thereafter with the assay buffer. Inhibitor and enzyme solutions were preincubated together for 6 h at room temperature prior to assay in order to allow for the formation of the E – I complex. The inhibition constants were obtained by nonlinear least-squares methods using PRISM 3 and the Cheng–Prusoff equation, as reported earlier[12]^,[13]^,[20]^,[21], and represent the mean from at least three different determinations. All CA isoforms were recombinant ones obtained in-house as reported earlier[22]^,[23] and their concentrations in the assay system ranged between 7.6–12.5 nM.

hCA VII [3] = target: T3, hCA VII (Homo sapiens, UniProt P43166); experiment: biochemical; design: stopped-flow CO2 hydration assay, phenol red 557 nm, Hepes pH 7.5, recombinant alpha-CA, 6 h preincubation
T3 construct: gene CA7; recombinant, obtained in-house; cytosolic
Method: as §1

hCA XIII [4] = target: T4, hCA XIII (Homo sapiens, UniProt Q8N1Q1); experiment: biochemical; design: stopped-flow CO2 hydration assay, phenol red 557 nm, Hepes pH 7.5, recombinant alpha-CA, 6 h preincubation
T4 construct: gene CA13; recombinant, obtained in-house; cytosolic
Method: as §1

StCA2 [5] = target: T5, StCA2 (Salmonella enterica, UniProt O30898); design: stopped-flow CO2 hydration assay, phenol red 557 nm, TRIS pH 8.4, recombinant beta-CA, 6 h preincubation; conditions: inhibitor
T5 construct: gene mig-5; recombinant, obtained in-house; beta-class CA
T5 sequence (O30898 41-246): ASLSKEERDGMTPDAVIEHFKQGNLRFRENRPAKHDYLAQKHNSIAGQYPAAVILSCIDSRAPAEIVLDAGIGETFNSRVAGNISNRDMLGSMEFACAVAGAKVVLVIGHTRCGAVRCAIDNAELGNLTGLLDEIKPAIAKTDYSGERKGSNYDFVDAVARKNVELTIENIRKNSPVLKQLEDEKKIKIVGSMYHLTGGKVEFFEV
Method: as §1, with “For each inhibitor, at least six traces of the initial 5 – 10% of the reaction have been used for determining the initial velocity.” left out

StCA1 = target: T6, StCA1; experiment: stopped-flow CO2 hydration; assay type: biochemical, Salmonella enterica subsp. enterica serovar Typhimurium; conditions: 20 mM TRIS pH 8.4, 20 mM Na2SO4, CO2 1.7-17 mM; 6 h preincubation at room temperature
T6 construct: recombinant, obtained in-house; beta-class CA
Source text: stopped-flow CO2 hydration on StCA1

hCA I [6] = target: T1, hCA I; experiment: biochemical; design: stopped-flow CO2 hydration assay, phenol red 557 nm, Hepes pH 7.5, recombinant alpha-CA, 6 h preincubation
Method: as §1

hCA VII [7] = target: T3, hCA VII; experiment: stopped-flow CO2 hydration; assay type: biochemical
Source text: stopped-flow CO2 hydration on hCA VII

hCA II [8] = target: T2, hCA II; experiment: stopped-flow CO2 hydration; assay type: biochemical
Source text: stopped-flow CO2 hydration on hCA II

hCA I [9] = target: T1, hCA I; experiment: biochemical; design: stopped-flow CO2 hydration assay, phenol red absorbance at 557 nm, Ki via Cheng-Prusoff
Method: as §1, with “nM. Sulphonamides 8a–o incorporating carbamimidothioate moieties have been tested as inhibitors of four human (h) CA isoforms, the cytosolic hCA I, II, VII and XIII, as well as the bacterial β-CAs from Mammaliicoccus (Staphylococcus) sciuri[14] and Salmonella enterica (serovar Typhimurium), StCA1 and StCA2[15]. It should be mentioned that the first bacterial enzyme, MscCA, was originally reported by us as Staphylococcus aureus β-CA, SauCA based on a genomic sequence annotated in the data bases in 2017[14]. […] In 2020, the species was renamed as belonging to a new genus, as Mammaliicoccus sciuri. The hCAs included in the study were the ubiquitous hCA I and II, as well as hCA VII and XIII which are found in fewer tissues compared to hCA I and II, and are involved in several pathologies in the CNS (hCA VII) or reproductive tract (hCA XIII)[17]^,[18].” for “nM.”

hCA II [10] = target: T2, hCA II; experiment: biochemical; design: stopped-flow CO2 hydration assay, phenol red absorbance at 557 nm, Ki via Cheng-Prusoff
Method: as §1, with “nM. Sulphonamides 8a–o incorporating carbamimidothioate moieties have been tested as inhibitors of four human (h) CA isoforms, the cytosolic hCA I, II, VII and XIII, as well as the bacterial β-CAs from Mammaliicoccus (Staphylococcus) sciuri[14] and Salmonella enterica (serovar Typhimurium), StCA1 and StCA2[15]. It should be mentioned that the first bacterial enzyme, MscCA, was originally reported by us as Staphylococcus aureus β-CA, SauCA based on a genomic sequence annotated in the data bases in 2017[14]. […] In 2020, the species was renamed as belonging to a new genus, as Mammaliicoccus sciuri. The hCAs included in the study were the ubiquitous hCA I and II, as well as hCA VII and XIII which are found in fewer tissues compared to hCA I and II, and are involved in several pathologies in the CNS (hCA VII) or reproductive tract (hCA XIII)[17]^,[18].” for “nM.”

hCA VII [11] = target: T3, hCA VII; experiment: biochemical; design: stopped-flow CO2 hydration assay, phenol red absorbance at 557 nm, Ki via Cheng-Prusoff
Method: as §1, with “nM. Sulphonamides 8a–o incorporating carbamimidothioate moieties have been tested as inhibitors of four human (h) CA isoforms, the cytosolic hCA I, II, VII and XIII, as well as the bacterial β-CAs from Mammaliicoccus (Staphylococcus) sciuri[14] and Salmonella enterica (serovar Typhimurium), StCA1 and StCA2[15]. It should be mentioned that the first bacterial enzyme, MscCA, was originally reported by us as Staphylococcus aureus β-CA, SauCA based on a genomic sequence annotated in the data bases in 2017[14]. […] In 2020, the species was renamed as belonging to a new genus, as Mammaliicoccus sciuri. The hCAs included in the study were the ubiquitous hCA I and II, as well as hCA VII and XIII which are found in fewer tissues compared to hCA I and II, and are involved in several pathologies in the CNS (hCA VII) or reproductive tract (hCA XIII)[17]^,[18].” for “nM.”

hCA XIII [12] = target: T4, hCA XIII; experiment: biochemical; design: stopped-flow CO2 hydration assay, phenol red absorbance at 557 nm, Ki via Cheng-Prusoff
Method: as §1, with “nM. Sulphonamides 8a–o incorporating carbamimidothioate moieties have been tested as inhibitors of four human (h) CA isoforms, the cytosolic hCA I, II, VII and XIII, as well as the bacterial β-CAs from Mammaliicoccus (Staphylococcus) sciuri[14] and Salmonella enterica (serovar Typhimurium), StCA1 and StCA2[15]. It should be mentioned that the first bacterial enzyme, MscCA, was originally reported by us as Staphylococcus aureus β-CA, SauCA based on a genomic sequence annotated in the data bases in 2017[14]. […] In 2020, the species was renamed as belonging to a new genus, as Mammaliicoccus sciuri. The hCAs included in the study were the ubiquitous hCA I and II, as well as hCA VII and XIII which are found in fewer tissues compared to hCA I and II, and are involved in several pathologies in the CNS (hCA VII) or reproductive tract (hCA XIII)[17]^,[18].” for “nM.”

StCA2 [13] = target: T5, StCA2; design: stopped-flow CO2 hydration assay, phenol red absorbance at 557 nm, Ki via Cheng-Prusoff; conditions: inhibitor
Method: as §1, with “All CA isoforms were recombinant ones obtained in-house as reported earlier[22]^,[23] and their concentrations in the assay system ranged between 7.6–12.5 nM.” left out

hCA XIII [14] = target: T4, hCA XIII; experiment: stopped-flow CO2 hydration; assay type: biochemical
Source text: stopped-flow CO2 hydration on hCA XIII

StCA2 [15] = target: T5, StCA2; experiment: stopped-flow CO2 hydration; assay type: biochemical; conditions: 20 mM TRIS pH 8.4, 20 mM Na2SO4, CO2 1.7-17 mM; 6 h preincubation at room temperature
Source text: stopped-flow CO2 hydration on StCA2

T3 sequence (P43166 whole entry): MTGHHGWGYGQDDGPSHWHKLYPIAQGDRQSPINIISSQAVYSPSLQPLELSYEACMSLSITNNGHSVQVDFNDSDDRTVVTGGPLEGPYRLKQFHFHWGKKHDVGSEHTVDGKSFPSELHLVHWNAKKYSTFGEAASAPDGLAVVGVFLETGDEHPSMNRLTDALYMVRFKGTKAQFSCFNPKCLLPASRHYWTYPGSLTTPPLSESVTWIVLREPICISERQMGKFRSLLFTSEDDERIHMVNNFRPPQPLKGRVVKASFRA
T4 sequence (Q8N1Q1 whole entry): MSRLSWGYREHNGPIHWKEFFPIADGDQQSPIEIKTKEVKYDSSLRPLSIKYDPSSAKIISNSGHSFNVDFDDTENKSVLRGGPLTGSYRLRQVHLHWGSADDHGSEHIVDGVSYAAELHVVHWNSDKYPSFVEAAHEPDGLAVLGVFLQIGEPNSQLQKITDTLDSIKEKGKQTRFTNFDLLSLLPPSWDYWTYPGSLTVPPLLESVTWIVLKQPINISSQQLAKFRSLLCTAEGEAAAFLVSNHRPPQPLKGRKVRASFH
T1 sequence (P00915 2-261): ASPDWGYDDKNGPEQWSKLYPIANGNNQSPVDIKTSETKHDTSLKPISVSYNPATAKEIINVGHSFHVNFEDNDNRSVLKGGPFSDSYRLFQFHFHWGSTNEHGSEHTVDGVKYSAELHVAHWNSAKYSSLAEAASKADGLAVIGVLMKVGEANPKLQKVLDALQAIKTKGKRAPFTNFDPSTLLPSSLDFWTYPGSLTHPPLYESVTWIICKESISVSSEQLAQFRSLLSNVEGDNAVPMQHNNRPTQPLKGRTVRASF

SMILES	Ki (hCA II [2]) [nM]	Ki (hCA VII [3]) [nM]	Ki (hCA XIII [4]) [nM]	Ki (StCA2 [5]) [nM]	Ki (hCA I [6]) [nM]	also measured
NC(=Nc1ccc(S(N)(=O)=O)cc1)SCc1ccc(Br)cc1 [8i, 4-Bromobenzyl (4-sulphamoylphenyl)carbamimidothioate]	29.9	2.1	907	9700	–	Ki (hCA I [1]): 60 nM
CCCCCCCSC(N)=Nc1ccc(S(N)(=O)=O)cc1 [8d, Heptyl (4-sulphamoylphenyl)carbamimidothioate]	9.3	2.7	926	955	–	Ki (StCA1): 71.3 nM
NC(=Nc1ccc(S(N)(=O)=O)cc1)SCc1ccc(Cl)cc1 [8h, 4-Chlorobenzyl (4-sulphamoylphenyl)carbamimidothioate]	34.4	2	892	6680	73.2	–
C=CCSC(N)=Nc1ccc(S(N)(=O)=O)cc1 [8e, Allyl (4-sulphamoylphenyl)carbamimidothioate]	–	–	814	4990	–	Ki (hCA I [1]): 38.5 nM; Ki (hCA VII [7]): 1.8 nM; Ki (hCA II [8]): 8.2 nM
CCCCCCSC(=N)Nc1ccc(S(N)(=O)=O)cc1 [8c, Hexyl (4-sulphamoylphenyl)carbamimidothioate]	–	–	–	–	–	Ki (hCA I [9]): 78.8 nM; Ki (hCA II [10]): 2.5 nM; Ki (hCA VII [11]): 2.3 nM; Ki (hCA XIII [12]): 92.2 nM; Ki (StCA2 [13]): 898 nM
NC(=Nc1ccc(S(N)(=O)=O)cc1)SCc1cc(F)cc(F)c1 [8m, 3,5-Difluorobenzyl (4-sulphamoylphenyl)carbamimidothioate]	–	–	–	6310	82.2	Ki (hCA VII [7]): 1.2 nM; Ki (hCA II [8]): 1.7 nM; Ki (hCA XIII [14]): 75.6 nM
NC(=Nc1ccc(S(N)(=O)=O)cc1)SCc1ccc([N+](=O)[O-])cc1 [8k]	9	2.6	856	6850	77.2	–
NC(=Nc1ccc(S(N)(=O)=O)cc1)SCc1ccc(C(F)(F)F)cc1 [8l, 4-(Trifluoromethyl)benzyl (4-sulphamoylphenyl)carbamimidothioate]	8.9	2.3	–	5890	73.5	Ki (hCA XIII [14]): 80.5 nM
CCCCSC(N)=Nc1ccc(S(N)(=O)=O)cc1 [8b, Butyl (4-sulphamoylphenyl)carbamimidothioate]	73.6	13.8	–	–	76.4	Ki (StCA2 [15]): 348 nM
NC(=Nc1ccc(S(N)(=O)=O)cc1)SCc1ccccc1 [8g, Benzyl (4-sulphamoylphenyl)carbamimidothioate]	–	2.4	491	–	68.1	Ki (StCA2 [15]): 902 nM; Ki (StCA1): 52.2 nM
C#CCSC(N)=Nc1ccc(S(N)(=O)=O)cc1 [8f, Prop-2-yn-1-yl (4-sulphamoylphenyl)carbamimidothioate]	–	5.5	352	7120	92.5	Ki (hCA II [8]): 6.9 nM
N#Cc1ccc(CSC(N)=Nc2ccc(S(N)(=O)=O)cc2)cc1 [8j, 4-Cyanobenzyl (4-sulphamoylphenyl)carbamimidothioate]	21.5	–	302	5190	82.8	Ki (hCA VII [7]): 1.5 nM; Ki (StCA1): 55.7 nM
CSC(N)=Nc1ccc(S(N)(=O)=O)cc1 [8a, Methyl (4-sulphamoylphenyl)carbamimidothioate]	85.8	18.9	–	–	90.4	Ki (StCA2 [15]): 270 nM; Ki (hCA XIII [14]): 97.5 nM
